Data set [1] concerns the target T1, Voltage-dependent L-type calcium channel subunit alpha-1C (Homo sapiens, UniProt Q13936). Kind of data set: Antagonist activity at Cav1.2 (unknown origin) stably expressed in HEK293 cells at 10 uM assessed as inhibition of LTCC current by Whole cell patch clamp assay relative to control. The class given is cell-based. The following applies: read-out: Activity. A general note: Patch clamp records ionic current or voltage across a cell membrane.

The target in data set [2] is T1, Voltage-dependent L-type calcium channel subunit alpha-1C. Kind of data set: Antagonist activity at Cav1.2 (unknown origin) stably expressed in HEK293 cells assessed as inhibition of LTCC current by Whole cell patch clamp assay. In kind it is cell-based. The following applies: for Activity: human, hek293.
For data set [3], the target named is T2, Voltage-gated L-type calcium channel (Homo sapiens, UniProt Q13936+Q13698+Q01668+O60840). Kind of data set: Antagonist activity at L-type calcium channel in human mesoangioblast-derived myotube assessed as reduction in KCL-mediated depolarization of cytosolic (Ca2+) increase at 10 uM incubated for 25 mins in presence of KCl by live-cell imaging based analysis.

For data set [4], the target named is T1, Voltage-dependent L-type calcium channel subunit alpha-1C. The data set can be described thus: Binding affinity to GFP-tagged Cav1.2alpha 1C (unknown orign) transfected with human HeLa cells assessed as increase in fluorescence intensity at 50 nM incubated for 5 mins by fluorescence based confocal microscopy analysis. In kind it is cell-based. The following applies: 0.05 µM.

The target is the same in data set [5]. The data set can be described thus: Binding affinity to GFP-tagged Cav1.2alpha 1C (unknown orign) transfected with human HeLa cells assessed as increase in fluorescence intensity at 25 to 100 nM in presence of nifedipine by fluorescence based confocal microscopy analysis. The class given is cell-based. The following applies: dose 25-100 nM.
Data set [6] addresses T2, Voltage-gated L-type calcium channel. Kind of data set: Antagonist activity at L-type calcium channel in Ca1520-loade human SH-SY5Y cells assessed as inhibition of KCL-mediated depolarization of cytosolic (Ca2+) increase incubated for 5 mins in presence of KCl by live-cell imaging based analysis.
For data set [7], the target named is T1, Voltage-dependent L-type calcium channel subunit alpha-1C. The data set can be described thus: Binding affinity to GFP-tagged Cav1.2alpha 1C (unknown orign) transfected with human HeLa cells assessed as increase in fluorescence intensity in cytoplasm at 25 to 100 nM in presence of nifedipine by fluorescence based confocal microscopy analysis. The class given is cell-based. The following applies: dose 25-100 nM.

For data set [8], the target named is T2, Voltage-gated L-type calcium channel. The data set can be described thus: Binding affinity to LTCC in endogenously expressing human SH-SY5Y cells assessed as increase in fluorescence intensity at 50 to 100 nM in presence of nifedipine by fluorescence based confocal microscopy analysis. The class given is cell-based. The following applies: dose 50-100 nM.

Each structure is given as a SMILES string. pIC50: −log10 of the molar value.

T1 sequence (Q13936 whole entry): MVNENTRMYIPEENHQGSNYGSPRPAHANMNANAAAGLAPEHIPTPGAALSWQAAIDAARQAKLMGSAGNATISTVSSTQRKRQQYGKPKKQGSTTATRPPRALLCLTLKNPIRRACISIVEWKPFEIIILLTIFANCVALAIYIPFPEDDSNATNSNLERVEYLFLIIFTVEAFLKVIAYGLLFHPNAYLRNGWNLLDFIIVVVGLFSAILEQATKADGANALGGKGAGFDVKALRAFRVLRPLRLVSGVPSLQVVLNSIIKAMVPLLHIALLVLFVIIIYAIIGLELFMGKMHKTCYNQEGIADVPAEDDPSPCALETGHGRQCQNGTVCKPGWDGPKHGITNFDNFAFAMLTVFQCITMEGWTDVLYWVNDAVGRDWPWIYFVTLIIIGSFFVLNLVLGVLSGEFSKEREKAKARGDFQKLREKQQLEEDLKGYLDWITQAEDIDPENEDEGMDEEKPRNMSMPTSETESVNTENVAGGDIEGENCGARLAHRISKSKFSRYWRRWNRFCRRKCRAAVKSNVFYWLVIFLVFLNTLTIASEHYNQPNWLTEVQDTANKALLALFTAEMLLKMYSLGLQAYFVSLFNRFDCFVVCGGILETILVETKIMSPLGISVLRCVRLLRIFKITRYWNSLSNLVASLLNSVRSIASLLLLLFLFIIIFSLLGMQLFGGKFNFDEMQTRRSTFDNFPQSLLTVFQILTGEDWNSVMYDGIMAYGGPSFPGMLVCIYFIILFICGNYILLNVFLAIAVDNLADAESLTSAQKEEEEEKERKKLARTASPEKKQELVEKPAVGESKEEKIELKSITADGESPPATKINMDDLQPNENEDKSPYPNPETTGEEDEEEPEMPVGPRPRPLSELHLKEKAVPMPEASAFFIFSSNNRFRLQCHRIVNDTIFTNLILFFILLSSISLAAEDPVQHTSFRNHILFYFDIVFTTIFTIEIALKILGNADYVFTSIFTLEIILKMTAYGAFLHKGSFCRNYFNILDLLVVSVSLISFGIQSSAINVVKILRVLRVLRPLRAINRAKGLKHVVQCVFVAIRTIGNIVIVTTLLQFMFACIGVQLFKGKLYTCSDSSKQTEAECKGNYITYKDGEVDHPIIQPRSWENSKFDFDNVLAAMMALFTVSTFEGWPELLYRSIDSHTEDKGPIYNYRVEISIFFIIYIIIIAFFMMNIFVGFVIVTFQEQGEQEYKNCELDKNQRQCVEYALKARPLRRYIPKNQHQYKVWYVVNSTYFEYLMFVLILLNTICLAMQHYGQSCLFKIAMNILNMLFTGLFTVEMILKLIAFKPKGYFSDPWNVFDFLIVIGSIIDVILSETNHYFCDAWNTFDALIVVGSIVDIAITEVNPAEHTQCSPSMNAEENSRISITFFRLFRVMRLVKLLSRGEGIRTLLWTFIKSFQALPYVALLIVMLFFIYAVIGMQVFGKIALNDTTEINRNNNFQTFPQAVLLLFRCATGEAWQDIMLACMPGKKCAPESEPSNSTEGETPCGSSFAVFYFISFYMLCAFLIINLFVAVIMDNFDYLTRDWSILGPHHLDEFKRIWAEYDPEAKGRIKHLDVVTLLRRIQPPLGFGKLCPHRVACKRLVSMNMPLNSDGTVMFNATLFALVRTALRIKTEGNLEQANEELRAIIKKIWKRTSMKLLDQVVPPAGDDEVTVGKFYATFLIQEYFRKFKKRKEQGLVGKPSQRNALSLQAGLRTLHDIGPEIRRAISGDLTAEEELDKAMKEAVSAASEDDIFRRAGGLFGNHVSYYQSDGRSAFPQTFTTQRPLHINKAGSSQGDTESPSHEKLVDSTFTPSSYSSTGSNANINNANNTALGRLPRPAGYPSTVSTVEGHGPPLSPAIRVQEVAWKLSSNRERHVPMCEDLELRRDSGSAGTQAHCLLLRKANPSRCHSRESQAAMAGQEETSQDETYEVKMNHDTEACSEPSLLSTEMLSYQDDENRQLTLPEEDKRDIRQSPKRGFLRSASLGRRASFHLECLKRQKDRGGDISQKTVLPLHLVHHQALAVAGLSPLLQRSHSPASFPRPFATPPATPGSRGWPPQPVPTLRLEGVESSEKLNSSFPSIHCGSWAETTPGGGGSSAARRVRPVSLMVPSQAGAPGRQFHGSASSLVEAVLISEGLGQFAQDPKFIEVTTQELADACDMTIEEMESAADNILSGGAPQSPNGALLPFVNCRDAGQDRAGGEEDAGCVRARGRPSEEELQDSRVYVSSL

As for `COC(=O)C1=C(C)NC(C)=C(C(=O)OCCCCCCCCNC(=O)CCCCC[N+]2=C(/C=C/C=C/C=C3/N(C)c4ccccc4C3(C)C)C(C)(C)c3ccccc32)C1c1cccc(Cl)c1Cl` (stereo unspecified), in data set [1], the inhibition at 10 µM worked out at 46%. For the same compound, the Activity entry in data set [2] is “Not Active”; in data set [3], “Active”.

Broadly, the pIC50 is the negative decadic logarithm of the IC50, by convention in mol/L. On to `COC(=O)C1=C(C)NC(C)=C(C(=O)OCCOCCNC(=O)CCCCC[N+]2=C(/C=C/C=C/C=C3N(C)c4ccccc4C3(C)C)C(C)(C)c3ccccc32)[C@@H]1c1cccc(Cl)c1Cl`, for which the inhibition at 10 µM in data set [1] amounted to 70%. The pIC50 in data set [2] is 5.19. For the same compound, the outcome in data set [3] was Active.

For `COC(=O)C1=C(C)NC(C)=C(C(=O)OCCOCCNC(=O)CCCCC[N+]2=C(/C=C/C=C/C=C3/N(C)c4ccccc4C3(C)C)C(C)(C)c3ccccc32)C1c1ccccc1[N+](=O)[O-]` (stereo unspecified), in data set [1], the inhibition at 10 µM is 83%. For the same compound, in data set [2], the pIC50 was 5.66. Also, the result in data set [3] was Active.

In the case of `COC(=O)C1=C(C)NC(C)=C(C(=O)OCCCCCCNC(=O)CCCCC[N+]2=C(/C=C/C=C/C=C3/N(C)c4ccccc4C3(C)C)C(C)(C)c3ccccc32)C1c1ccccc1[N+](=O)[O-]` (stereo unspecified), the inhibition at 10 µM in data set [1] amounted to 52%. The pIC50 in data set [2] was 4.90. In addition, in data set [3], the result was Active.

As for `COC(=O)C1=C(C)NC(C)=C(C(=O)OCCNC(=O)CCCCC[N+]2=C(/C=C/C=C/C=C3/N(C)c4ccccc4C3(C)C)C(C)(C)c3ccccc32)C1c1cccc(Cl)c1Cl` (stereo unspecified), the inhibition at 10 µM in data set [1] turned out to be 72%. The pIC50 in data set [2] is 5.37. Moreover, the outcome in data set [3] was Active.

As to `COC(=O)C1=C(C)NC(C)=C(C(=O)OCCCCCCNC(=O)CCCCC[N+]2=C(/C=C/C=C/C=C3/N(C)c4ccccc4C3(C)C)C(C)(C)c3ccccc32)C1c1cccc(Cl)c1Cl` (stereo unspecified), the inhibition at 10 µM in data set [1] came to 50%. In data set [2], the pIC50 was 4.90. For the same compound, the result in data set [3] was Active.

As usually defined, the IC50 is the concentration needed to halve the response being measured. For `COC(=O)C1=C(C)NC(C)=C(C(=O)OCCOCCNC(=O)CCCCC[N+]2=C(/C=C/C=C/C=C3\N(C)c4ccccc4C3(C)C)C(C)(C)c3ccccc32)[C@H]1c1cccc(Cl)c1Cl`, the Activity result in data set [4] was “Active”; in data set [5], “Not Active”; in data set [6] (human, 5 min, dose 0.1-10000 nM) it was “Dose-Dependent Effect”; in data set [7], “Not Active”; in data set [8] it was “Not Active”; in data set [3], “Active”. Also, the inhibition at 10 µM in data set [1] is 94%. Further, the pIC50 in data set [2] is 6.19. Besides, the IC50 in data set [6] came out at 1.08 µM.

Take `COC(=O)C1=C(C)NC(C)=C(C(=O)OCCOCCOCCNC(=O)CCCCC[N+]2=C(/C=C/C=C/C=C3\N(C)c4ccccc4C3(C)C)C(C)(C)c3ccccc32)C1c1cccc(Cl)c1Cl` (stereo unspecified): in data set [1], the inhibition at 10 µM was 77%. Further, in data set [2], the pIC50 is 5.46. Further, the outcome in data set [3] was Active.

Consider `COC(=O)C1=C(C)NC(C)=C(C(=O)OCCOCCNC(=O)CCCCC[N+]2=C(/C=C/C=C/C=C3/N(C)c4ccccc4C3(C)C)C(C)(C)c3ccccc32)C1c1cccc(Cl)c1Cl` (stereo unspecified), for which, in data set [1], the inhibition at 10 µM worked out at 62%. In addition, the pIC50 in data set [2] is 5.13. Besides, in data set [3], the result was Active.

Take `COC(=O)C1=C(C)NC(C)=C(C(=O)OCCCCCCCCNC(=O)CCCCC[N+]2=C(/C=C/C=C/C=C3/N(C)c4ccccc4C3(C)C)C(C)(C)c3ccccc32)C1c1ccccc1[N+](=O)[O-]` (stereo unspecified): the inhibition at 10 µM in data set [1] came out at 87%. In addition, the negative logarithm of the IC50 (pIC50) in data set [2] is 5.72. For the same compound, the outcome in data set [3] was Active.

As to `COC(=O)C1=C(C)NC(C)=C(C(=O)OCCCCCCNC(=O)CCCCCNC(=O)Oc2ccc(/C=C/C3=[N+]4C(=Cc5ccc(-c6cccs6)n5[B-]4(F)F)C=C3)cc2)C1c1cccc(Cl)c1Cl` (stereo unspecified), the inhibition at 10 µM in data set [1] is 24%. Further, the Activity entry in data set [2] and in data set [3] was “Not Active” throughout.

For the compound `COC(=O)C1=C(C)NC(C)=C(C(=O)OCCOCCNC(=O)CCCCC[N+]2=C(/C=C/C=C/C=C3/N(C)c4ccccc4C3(C)C)C(C)(C)c3ccccc32)C1c1ccccc1OS(=O)(=O)F` (stereo unspecified), the inhibition at 10 µM in data set [1] was determined as 88%. The pIC50 in data set [2] is 5.82. For the same compound, in data set [3], the result was Active.

`COC(=O)C1=C(C)NC(C)=C(C(=O)OCCOCCNC(=O)CCCCC[N+]2=C(/C=C/C=C/C=C3/N(C)c4ccccc4C3(C)C)C(C)(C)c3ccccc32)C1c1ccccc1/C=C/C(=O)OC(C)(C)C` (stereo unspecified): the inhibition at 10 µM in data set [1] was determined as 97%. The pIC50 in data set [2] is 5.97. Besides, the result in data set [3] was Active.

In the case of `COC(=O)C1=C(C)NC(C)=C(C(=O)OC)C1c1ccccc1[N+](=O)[O-]` [NIFEDIPINE], the inhibition at 10 µM in data set [1] is 102%.

Source of the values: ChEMBL document CHEMBL6127106, “Novel Far-Red Fluorescent 1,4-Dihydropyridines for L-Type Calcium Channel Imaging” (J Med Chem, 2024).
